Test results: patent US20250346512A1, “WATER TREATMENT METHOD, WATER TREATMENT APPARATUS, SLIME INHIBITOR, AND CLEANING METHOD” (ORGANO CORPORATION, priority 2022, published 2025)

Test system: viable bacteria
Assay: Contact of slime inhibitor with water containing viable bacteria
Type: cell-based
Excerpt: The slime inhibitor was brought into contact with water containing viable bacteria, and the number of viable bacteria before the contact with the slime inhibitor and the number of viable bacteria after contact with the slime inhibitor for one hour were examined.

OCl [Sodium hypochlorite, sodium hypochlorite]
Number of viable bacteria before contact with slime inhibitor (baseline before contact): 10^6 | Number of viable bacteria after contact with slime inhibitor for one hour (slime inhibitor 0.1 mg/L as Cl2, contact one hour): 10^5
